Target: T1, human MRGPRX2 (Homo sapiens, UniProt Q96LB1)
T1 sequence (Q96LB1 1-330): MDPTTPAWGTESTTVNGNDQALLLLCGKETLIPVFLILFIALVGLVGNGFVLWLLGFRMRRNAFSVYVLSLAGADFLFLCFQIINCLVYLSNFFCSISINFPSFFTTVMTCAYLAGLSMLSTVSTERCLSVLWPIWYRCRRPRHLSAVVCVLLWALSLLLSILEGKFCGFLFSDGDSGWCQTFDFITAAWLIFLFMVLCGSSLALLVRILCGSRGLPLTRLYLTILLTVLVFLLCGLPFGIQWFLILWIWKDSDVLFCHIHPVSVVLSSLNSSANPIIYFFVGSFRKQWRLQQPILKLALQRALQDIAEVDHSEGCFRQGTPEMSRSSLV
Experiment: Ca2+ mobilization assay (FLIPR TETRA): inhibition of Cortistatin-14 mediated MRGPRX2 activation

| Structure (SMILES) | IC50 |
| --- | --- |
| C[C@@H](C(=O)Nc1ccc(Oc2ccc(F)cc2)cn1)N1CCC(F)(F)[C@@H](c2c[nH]c(=O)c(N)n2)C1 [Example 108, (S)-2-((R)-3-(6-amino-5-oxo-4,5-dihydropyrazin-2-y1)-4,4-difluoropiperidin-1-y1)-N-(5-(4-fluorophenoxy)pyridin-2-yl)propanamide] | ≤ 10 nM |
| COCCNCc1cc(C2CN(C(C)C(=O)Nc3ccc(Oc4ccc(F)cc4)cn3)CCC2(F)F)c[nH]c1=O (stereo not shown) [Example 239, 2-(4,4-difluoro-3-(5-(((2-methoxyethyl)amino)methyl)-6-oxo-1,6-dihydropyridin-3-yl)piperidin-1-yl)-N-(5-(4-fluorophenoxy)pyridin-2-yl)propanamide] | ≤ 10 nM |
| C[C@@H](C(=O)Nc1cnc(Oc2ccc(F)cc2F)cn1)[C@H]1CCC[C@@H](c2ccc(=O)[nH]c2)C1 [Example 286, (R)-N-(5-(2,4-difluorophenoxy)pyrazin-2-yl)-2-((1S,3R)-3-(6-oxo-1,6-dihydropyridin-3-yl)cyclohexyl)propanamide] | ≤ 10 nM |
| C[C@@H](C(=O)Nc1ccc(Oc2c(F)cc(F)cc2F)cn1)N1CCC(F)(F)[C@@H](c2cc[n+]([O-])cc2)C1 [Example 123, 4-((S)-4,4-difluoro-1-((S)-1-oxo-1-((5-(2,4,6-trifluorophenoxy)pyridin-2-yl)amino)propan-2-yl)piperidin-3-yl)pyridine 1-oxide] | ≤ 10 nM |
| C[C@@H](C(=O)Nc1ccc(Oc2ccc(F)cc2F)cn1)[C@H]1CCC(F)(F)[C@@H](c2cc[n+]([O-])cc2)C1 [Example 291, 4-((1R,5S)-5-((R)-1-((5-(2,4-difluorophenoxy)pyridin-2-yl)amino)-1-oxopropan-2-yl)-2,2-difluorocyclohexyl)pyridine 1-oxide] | ≤ 10 nM |
| C[C@@H](C(=O)Nc1ccc(Oc2ccc(F)cc2F)cn1)N1CCC(F)(F)[C@@H](c2c[nH]c(=O)c(CN)c2)C1 [Example 205, (S)-2-((S)-3-(5-(aminomethyl)-6-oxo-1,6-dihydropyridin-3-yl)-4,4-difluoropiperidin-1-yl)-N-(5-(2,4-difluorophenoxy)pyridin-2-yl)propanamide] | ≤ 10 nM |
| C[C@@H](C(=O)Nc1ccc(Cl)cn1)N1CCC[C@@H](c2cc[n+]([O-])cc2)C1 (single isomer, unassigned) [Example 180] | 3160 to 31600 nM |
| C[C@@H](C(=O)Nc1ccc(Oc2ncccc2F)cn1)N1CCC(F)(F)[C@@H](c2cc[n+]([O-])cc2)C1 [Example 125, 4-((S)-4,4-difluoro-1-((S)-1-((5-((3-fluoropyridin-2-yl)oxy)pyridin-2-yl)amino)-1-oxopropan-2-yl)piperidin-3-yl)pyridine 1-oxide] | 10 to 100 nM |
| C[C@@H](C(=O)Nc1ccc(Oc2ccc(F)cc2F)cn1)N1CCC(F)(F)[C@@H](c2c[nH]c(=O)c([C@@H](N)C(F)(F)F)c2)C1 (single isomer, unassigned) [Example 236] | ≤ 10 nM |
| CNCc1cc(C2CN(C(C)C(=O)Nc3ccc(Oc4ccc(F)cc4)cn3)CCC2(F)F)c[nH]c1=O (stereo not shown) [Example 237, 2-(4,4-difluoro-3-(5-((methylamino)methyl)-6-oxo-1,6-dihydropyridin-3-yl)piperidin-1-yl)-N-(5-(4-fluorophenoxy)pyridin-2-yl)propanamide] | ≤ 10 nM |
| C[C@@H](C(=O)Nc1ccc(F)cn1)[C@H]1CCC(F)(F)[C@@H](c2ccc(=O)[nH]c2)C1 [Example 277, (R)-2-((1S,3R)-4,4-difluoro-3-(6-oxo-1,6-dihydropyridin-3-yl)cyclohexyl)-N-(5-fluoropyridin-2-yl)propanamide] | 10 to 100 nM |
| C[C@@H](C(=O)Nc1ccc(Oc2ncc(F)cc2F)cn1)[C@H]1CCC[C@@H](c2ccc(=O)[nH]c2)C1 [Example 285, (R)-N-(5-((3,5-difluoropyridin-2-yl)oxy)pyridin-2-yl)-2-((1S,3R)-3-(6-oxo-1,6-dihydropyridin-3-yl)cyclohexyl)propanamide] | ≤ 10 nM |
| C[C@@H](C(=O)Nc1ccc(Oc2ccc(F)cc2)cn1)N1CCC(F)(F)[C@@H](c2c[nH]c(=O)c(C(N)=O)c2)C1 [Example 252, 5-((S)-4,4-difluoro-1-((S)-1-((5-(4-fluorophenoxy)pyridin-2-yl)amino)-1-oxopropan-2-yl)piperidin-3-yl)-2-oxo-1,2-dihydropyridine-3-carboxamide] | ≤ 10 nM |

Next, values leading:

| IC50 | Structure (SMILES) |
| --- | --- |
| ≤ 10 nM | C[C@@H](C(=O)Nc1ccc(Oc2ncc(F)cc2F)cn1)[C@H]1CCC(F)(F)[C@@H](c2ccc(=O)[nH]c2)C1 [Example 281, (R)-2-((1S,3R)-4,4-difluoro-3-(6-oxo-1,6-dihydropyridin-3-yl)cyclohexyl)-N-(5-((3,5-difluoropyridin-2-yl)oxy)pyridin-2-yl)propanamide] |
| 10 to 100 nM | C[C@@H](C(=O)Nc1ccc(F)cn1)N1CCC(F)(F)[C@@H](c2ccc(=O)[nH]c2)C1 [Example 79, (S)-2-((S)-4,4-difluoro-3-(6-oxo-1,6-dihydropyridin-3-yl)piperidin-1-yl)-N-(5-fluoropyridin-2-yl)propanamide] |
| 10 to 100 nM | CC(C(=O)Nc1ccc(CCC2CC2)cn1)N1CCC(F)(F)[C@@H](c2ccc(=O)[nH]c2)C1 (stereo partly drawn) [Example 21, N-(5-(2-cyclopropylethyl)pyridin-2-yl)-2-((S)-4,4-difluoro-3-(6-oxo-1,6-dihydropyridin-3-yl)piperidin-1-yl)propanamide] |
| 10 to 100 nM | C[C@@H](C(=O)Nc1cnc(Oc2ccc(F)cc2)cn1)N1CCC(F)(F)[C@@H](c2ccc(=O)[nH]c2)C1 [Example 68, (S)-2-((S)-4,4-difluoro-3-(6-oxo-1,6-dihydropyridin-3-yl)piperidin-1-yl)-N-(5-(4-fluorophenoxy)pyrazin-2-yl)propanamide] |
| 10 to 100 nM | C[C@@H](C(=O)Nc1cnc(Oc2ccccc2)cn1)N1CCC(F)(F)[C@@H](c2c[nH]c(=O)c(CN)c2)C1 [Example 207, (S)-2-((S)-3-(5-(aminomethyl)-6-oxo-1,6-dihydropyridin-3-yl)-4,4-difluoropiperidin-1-yl)-N-(5-phenoxypyrazin-2-yl)propanamide] |
| 100 to 3160 nM | C[C@@H](C(=O)Nc1ccc(C(=O)OC2CCC2)cn1)N1CCC(F)(F)[C@@H](c2ccc(=O)[nH]c2)C1 [Example 37, cyclobutyl 6-((S)-2-((S)-4,4-difluoro-3-(6-oxo-1,6-dihydropyridin-3-yl)piperidin-1-yl)propanamido) nicotinate] |
| 10 to 100 nM | CC(C(=O)Nc1ccc(F)cn1)N1CCC(F)(F)C(c2ccc(=O)n(Cc3ccccn3)c2)C1 (stereo not shown) [Example 196, 2-(4,4-difluoro-3-(6-oxo-1-(pyridin-2-ylmethyl)-1,6-dihydropyridin-3-yl)piperidin-1-yl)-N-(5-fluoropyridin-2-yl)propanamide] |
| 10 to 100 nM | CC(C(=O)Nc1ccc(Oc2cccc(=O)[nH]2)cn1)N1CCC(F)(F)[C@@H](c2ccc(=O)[nH]c2)C1 (stereo partly drawn) [Example 267, 2-((S)-4,4-difluoro-3-(6-oxo-1,6-dihydropyridin-3-yl)piperidin-1-yl)-N-(5-((6-oxo-1,6-dihydropyridin-2-yl)oxy)pyridin-2-yl)propanamide] |
| 10 to 100 nM | C[C@@H](C(=O)Nc1ccc(C2CC2)cn1)N1CCC(F)(F)[C@@H](c2ccc(=O)[nH]c2)C1 [Example 15, (S)-N-(5-cyclopropyl-pyridin-2-yl)-2-((S)-4,4-difluoro-3-(6-oxo-1,6-dihydropyridin-3-yl)piperidin-1-yl)propanaraide] |
